We go through 60 substances from paper PMC10977697 (PLOS ONE, 2024).

Where no end group is shown, it is not given here.

This assay deals with EpCAM. Put plainly: Spot phage ELISA, EpCAM. The settings on record: spot phage ELISA signal-to-noise on EpCAM. The assay is classed as binding, human. (In general: An ELISA detects its analyte on a solid surface through an enzyme-linked reagent.)
Turning to “CKQDSDCLLVCLGPNGFCG (disulfide (positions not given here)) [EpCAM EET I-II 28]”, the S/N turned out to be 18.

The substance “GCFRHYVRCKQDSDCLAGCVCWFDWSCG (disulfide (positions not given here)) [EpCAM EET I-II 13]” showed a S/N of 20.8.

The substance “GCHRWGILCKQDSDCLAGCVCWQQGQCG (disulfide (positions not given here)) [EpCAM EET I-II 35]” came in with a S/N of 15.

“GCIKNNLRCKQDSDCLAGCVCWYDAACG (disulfide (positions not given here)) [EpCAM EET I-II 32]” registered a S/N of 16.9.

As to “GCKNDKIRCKQDSDCLAGCVCWEDPSCG (disulfide (positions not given here)) [EpCAM EET I-II 22]”, the S/N was determined as 18.9.

As to “GCMQWYIWCKQDSDCLAGCLYRSLPLD (disulfide (positions not given here)) [EpCAM EET I-II 9]”, the S/N worked out at 21.9.

Substance “GCPRILMRCKQDSDCEAICG (disulfide (positions not given here)) [EpCAM EET I-II 8]” registered a S/N of 21.9.

Turning to “GCPRILMRCKQDSDCHAFCG (disulfide (positions not given here)) [EpCAM EET I-II 30]”, the S/N turned out to be 17.5.

Take “GCPRILMRCKQDSDCHPVCG (disulfide (positions not given here)) [EpCAM EET I-II 20]”: the S/N was found to be 19.5.

Turning to “GCPRILMRCKQDSDCHWFCG (disulfide (positions not given here)) [EpCAM EET I-II 15]”, the S/N was 20.7.

“GCPRILMRCKQDSDCHWVCG (disulfide (positions not given here)) [EpCAM EET I-II 39]”: the S/N is on record as 6.6.

“GCPRILMRCKQDSDCLAGCGLSSGLVVW (disulfide (positions not given here)) [EpCAM EET I-II 1]” showed a S/N of 24.

The substance “GCPRILMRCKQDSDCLAGCVCENGIMCG (disulfide (positions not given here)) [EpCAM EET I-II 25]” registered a S/N of 18.6.

Take “GCPRILMRCKQDSDCLAGCVCPGNILCG (disulfide (positions not given here)) [EpCAM EET I-II 29]”: the S/N is 17.9.

Substance “GCPRILMRCKQDSDCLAGCVCWPGWPCG (disulfide (positions not given here)) [EpCAM EET I-II 7]” gave a S/N of 22.

In turn, “GCPRILMRCKQDSDCLAGCVCWPGWPCG (disulfide (positions not given here)) [EpCAM EET I-II 19]” displayed a S/N of 19.6.

In turn, “GCPRILMRCKQDSDCLAGCVLNGLVSWYT (disulfide (positions not given here)) [EpCAM EET I-II 38]” had a S/N of 7.1.

Substance “GCPRILMRCKQDSDCLALCCNERNICG (disulfide (positions not given here)) [EpCAM EET I-II 18]” had a S/N of 19.7.

For “GCPRILMRCKQDSDCLCGCV (disulfide (positions not given here)) [EpCAM EET I-II 11]”, the S/N worked out at 21.4.

As to “GCPRILMRCKQDSDCLPVCG (disulfide (positions not given here)) [EpCAM EET I-II 17]”, the S/N is given as 19.8.

As to “GCPRILMRCKQDSDCMPVCG (disulfide (positions not given here)) [EpCAM EET I-II 4]”, the S/N was found to be 23.

Substance “GCPRILMRCKQDSDCQAFCG (disulfide (positions not given here)) [EpCAM EET I-II 23]” returned a S/N of 18.7.

“GCPRILMRCKQDSDCQAVCG (disulfide (positions not given here)) [EpCAM EET I-II 27]” gave a S/N of 18.1.

Consider “GCPRILMRCKQDSDCQLVCLFPGLLVG (disulfide (positions not given here)) [EpCAM EET I-II 36]”, for which the S/N was found to be 14.3.

Consider “GCPRILMRCKQDSDCQPFCG (disulfide (positions not given here)) [EpCAM EET I-II 6]”, for which the S/N turned out to be 22.2.

Consider “GCPRILMRCKQDSDCQPICG (disulfide (positions not given here)) [EpCAM EET I-II 21]”, for which the S/N is given as 19.1.

As to “GCPRILMRCKQDSDCQPVCG (disulfide (positions not given here)) [EpCAM EET I-II 5]”, the S/N amounted to 22.8.

The substance “GCPRILMRCKQDSDCQPVCG (disulfide (positions not given here)) [EpCAM EET I-II 10]” returned a S/N of 21.9.

The substance “GCPRILMRCKQDSDCQWFCG (disulfide (positions not given here)) [EpCAM EET I-II 12]” showed a S/N of 20.9.

For the substance “GCPRILMRCKQDSDCRPVCG (disulfide (positions not given here)) [EpCAM EET I-II 34]”, the S/N is given as 15.7.

Take “GCPRILMRCKQDSDLSSWLCLCCYDSVC (disulfide (positions not given here)) [EpCAM EET I-II 37]”: the S/N is 9.5.

As to “GCPRILMRCKQDSELSSWLCLCCSGLVC (disulfide (positions not given here)) [EpCAM EET I-II 14]”, the S/N turned out to be 20.8.

Regarding “GCPRILMRCKQDSELSSWLCLCCSGSLC (disulfide (positions not given here)) [EpCAM EET I-II 26]”, the S/N is recorded as 18.3.

With “GCPRILMRCKQDSGLSSWLCLCCSASVC (disulfide (positions not given here)) [EpCAM EET I-II 16]”, the S/N came out at 20.6.

The substance “GCPRSHVRVFFSCKQDSDCLAGCVCFQVVC (disulfide (positions not given here)) [EpCAM EET I-II 31]” had a S/N of 17.4.

Turning to “GCRARPLVCKQDSDCLAGPNGFCG (disulfide (positions not given here)) [EpCAM EET I-II 24]”, the S/N came to 18.6.

The substance “GCRNTMVRCKQDSDCLAGCVCYFDPSCG (disulfide (positions not given here)) [EpCAM EET I-II 33]” yielded a S/N of 15.8.

With “GCRRMGVRCKQDSDCLAGCVCWHDPQCG (disulfide (positions not given here)) [EpCAM EET I-II 3]”, the S/N is reported as 23.

The substance “GCSFPLIRCKQDSDCQLVVLWSKRFCG (disulfide (positions not given here)) [EpCAM EET I-II 2]” had a S/N of 23.6.

On to “GPTQSHYGQCGGAGYVGTIKCSGTTCQYVLKPQSQCLPGAS (disulfide (positions not given here)) [EpCAM CBD 54]”, for which the S/N was determined as 9.4.

In the case of “GPTQSHYGQCGGDGYHGAIHCSGTTCQYVMMNRSQCLPGAS (disulfide (positions not given here)) [EpCAM CBD 59]”, the S/N is reported as 8.9.

With “GPTQSHYGQCGGDGYTGMIRCSGTTCQFVAKKHSQCLPGAS (disulfide (positions not given here)) [EpCAM CBD 40]”, the S/N is 11.8.

“GPTQSHYGQCGGDGYVGAILCSGTTCQHVSVFPSQCLPGAS (disulfide (positions not given here)) [EpCAM CBD 56]” gave a S/N of 9.3.

Substance “GPTQSHYGQCGGEGYKGAIVCSGTTCQQTKLQGSQCLPGAS (disulfide (positions not given here)) [EpCAM CBD 75]” returned a S/N of 7.7.

“GPTQSHYGQCGGEGYLGALRCSGTTCQYTQIKPSQCLPGAS (disulfide (positions not given here)) [EpCAM CBD 8]” returned a S/N of 21.8.

“GPTQSHYGQCGGFGYHGYIVCSGTTCQSRQYDNSQCLPGAS (disulfide (positions not given here)) [EpCAM CBD 21]” returned a S/N of 17.2.

On to “GPTQSHYGQCGGFGYIGVVRCSGTTCQPHQYFRSQCLPGAS (disulfide (positions not given here)) [EpCAM CBD 32]”, for which the S/N was 15.1.

The substance “GPTQSHYGQCGGFGYMGVMVCSGTTCQWIIRPFSQCLPGAS (disulfide (positions not given here)) [EpCAM CBD 25]” returned a S/N of 16.9.

With “GPTQSHYGQCGGFGYQGAVVCSGTTCQFTHLGHSQCLPGAS (disulfide (positions not given here)) [EpCAM CBD 88]”, the S/N was 5.9.

“GPTQSHYGQCGGFGYTGAIGCSGTTCQHVKYMRSQCLPGAS (disulfide (positions not given here)) [EpCAM CBD 7]”: the S/N was 22.6.

“GPTQSHYGQCGGGGYHGIICSGTTCQSREVVRSQCLPGAS (disulfide (positions not given here)) [EpCAM CBD 84]” came in with a S/N of 6.7.

“GPTQSHYGQCGGGGYIGAMPCSGTTCQPVRIP*SQCLPGAS (disulfide) [EpCAM CBD 26]” gave a S/N of 16.6.

In turn, “GPTQSHYGQCGGGGYPGAIMCSGTTCQFVMAHKSQCLPGAS (disulfide (positions not given here)) [EpCAM CBD 77]” registered a S/N of 7.5.

As for “GPTQSHYGQCGGGGYRGVVCSGTTCQPFFVFGSQCLPGAS (disulfide (positions not given here)) [EpCAM CBD 22]”, the S/N stood at 17.1.

The substance “GPTQSHYGQCGGGGYYGAISCSGTTCQPVRLIRSQCLPGAS (disulfide (positions not given here)) [EpCAM CBD 37]” registered a S/N of 13.0.

Turning to “GPTQSHYGQCGGHGYHGWAICSGTTCQERIRHLSQCLPGAS (disulfide (positions not given here)) [EpCAM CBD 41]”, the S/N came out at 11.6.

Substance “GPTQSHYGQCGGHGYMGSIKCSGTTCQYVEIVPSQCLPGAS (disulfide (positions not given here)) [EpCAM CBD 66]” registered a S/N of 8.6.

“GPTQSHYGQCGGHGYQGIMRCSGTTCQQVYMRSSQCLPGAS (disulfide (positions not given here)) [EpCAM CBD 34]” returned a S/N of 15.0.

“GPTQSHYGQCGGHGYVGMIACSGTTCQYLQKVPSQCLPGAS (disulfide (positions not given here)) [EpCAM CBD 13]” had a S/N of 19.5.

Turning to “GPTQSHYGQCGGIGYMGAIQCSGTTCQPIFLRNSQCLPGAS (disulfide (positions not given here)) [EpCAM CBD 6]”, the S/N is on record as 22.6.
